This note sets out measurements from US9732094B2, “Arylquinazolines” (Merck Patent GmbH, priority 2013, dated 2017).

A word on the Ki: it is the equilibrium dissociation constant of an inhibitor or competing ligand from its target. What is called IC50 is the concentration that inhibits the measured activity by half.

Read-outs that look alike come from different tables or passages of the source. Some results are limits rather than exact numbers.

One data set concerns the target Kv11.1 (hERG) (Homo sapiens (Human), UniProt Q12809). In words: Kv11.1 (hERG) ion channel activity (patch clamp assay), HEK293 cells transfected with hERG gene.
The target of data set [1] is DNA-PK phosphorylation at serine 2056 (Homo sapiens (Human), UniProt P78527). Put plainly: DNA-PK phosphorylation at serine 2056 (cellular), bleomycin-treated HCT116 cells, ELISA. Format: cell-based. As to conditions: read-out: IC50 pDNA-PK. As to the method: HCT116 cells were cultivated at 37° C. and 10% CO2 in MEM alpha medium with 10% of foetal calf serum and 2 mM glutamine. The cells were detached from the base of the culture vessels with the aid of trypsin/EDTA, centrifuged off in centrifuge tubes, taken up in fresh medium, and the cell density was determined. 100,000 cells were sown in 1 ml of culture medium per cavity of a 24-well cell culture plate and cultivated overnight. Next day, 10 μM bleomycin (DNA intercalator and inductor of DNA double-strand breaks) and test substances in fresh culture medium were added to the cells, and these were cultivated for a further six hours. […] The 96-well ELISA plates were subsequently treated with a detection antibody (Abcam ab79444: total DNA-PK) and a streptavidin-HRP conjugate. The development of the enzymatic reaction was carried out with the aid of a chemiluminescent reagent, the chemiluminescence was measured with the aid of a Mithras LB940. The signals with the phospho-DNA-PK-specific antibody were standardised to the signal with the antibody against the total protein DNA-PKc. […] The DMSO control was used as blank.

Another data set addresses DNA-PK (Homo sapiens (Human), UniProt P78527). Put plainly: DNA-PK assay (biochemical), flashplate 33P-ATP kinase assay. As to the method: A) DNA-PK Assay (Biochemical)
The kinase assay was carried out in streptavidin-coated […] microtitre flashplates. […] The reaction was stopped using 50 μl/well of 200 mM EDTA. After incubation for a further 30 min at room temperature, the liquid was removed. Each well was washed three times with 100 μl of 0.9% saline solution. A nonspecific reaction (blank value) was determined using 10 μM of an innate kinase inhibitor. The radioactivity measurement was carried out using a TopCount. IC50 values were calculated in RS1.

The mark [2] stands for this setting: human, HEK293 cells stably transfected with the hERG gene, Ki [Kv1.11 hERG], patch clamp, HEK293 transfected with hERG gene.
Where [3] appears, read: cellular, HCT116 cells, 10 μM bleomycin, six hours.
[4] abbreviates: Ki [Kv1.11 hERG], patch clamp, HEK293 transfected with hERG gene.
The mark [5] stands for this setting: read-out: Ki [Kv1.11 hERG], patch clamp, HEK293 transfected with hERG gene.

Kv11.1 (hERG), sequence (Q12809 whole entry): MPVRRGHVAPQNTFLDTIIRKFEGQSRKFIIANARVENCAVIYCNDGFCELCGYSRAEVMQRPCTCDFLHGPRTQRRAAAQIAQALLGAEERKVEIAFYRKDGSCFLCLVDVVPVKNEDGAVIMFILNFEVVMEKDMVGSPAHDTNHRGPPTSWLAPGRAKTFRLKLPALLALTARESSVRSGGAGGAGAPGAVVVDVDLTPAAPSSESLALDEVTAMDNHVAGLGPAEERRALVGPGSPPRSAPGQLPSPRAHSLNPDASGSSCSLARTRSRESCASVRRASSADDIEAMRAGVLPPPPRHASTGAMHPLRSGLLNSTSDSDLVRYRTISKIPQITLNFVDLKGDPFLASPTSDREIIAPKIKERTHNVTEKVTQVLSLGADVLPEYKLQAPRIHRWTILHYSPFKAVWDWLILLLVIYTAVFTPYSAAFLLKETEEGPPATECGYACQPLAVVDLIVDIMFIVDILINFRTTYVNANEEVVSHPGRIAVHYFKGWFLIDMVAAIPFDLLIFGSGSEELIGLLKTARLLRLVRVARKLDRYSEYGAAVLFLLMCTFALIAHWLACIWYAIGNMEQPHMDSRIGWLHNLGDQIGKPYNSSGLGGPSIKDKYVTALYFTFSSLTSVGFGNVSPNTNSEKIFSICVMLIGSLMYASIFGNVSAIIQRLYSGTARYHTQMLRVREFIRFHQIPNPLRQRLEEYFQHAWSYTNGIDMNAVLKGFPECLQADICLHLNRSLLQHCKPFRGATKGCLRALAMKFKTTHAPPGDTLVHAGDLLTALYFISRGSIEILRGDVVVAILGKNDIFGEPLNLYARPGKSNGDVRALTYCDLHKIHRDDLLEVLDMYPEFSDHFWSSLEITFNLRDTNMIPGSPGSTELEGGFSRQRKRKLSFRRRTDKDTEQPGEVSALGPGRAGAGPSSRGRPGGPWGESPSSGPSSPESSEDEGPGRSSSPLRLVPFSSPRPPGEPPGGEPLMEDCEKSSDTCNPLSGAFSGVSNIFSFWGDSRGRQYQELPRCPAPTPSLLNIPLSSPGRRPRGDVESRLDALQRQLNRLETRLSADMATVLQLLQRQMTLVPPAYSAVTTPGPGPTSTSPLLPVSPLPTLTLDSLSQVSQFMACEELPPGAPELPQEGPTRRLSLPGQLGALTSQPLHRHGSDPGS

As for `OC(c1ccc(F)c(-c2ncnc3cc(N4CCOCC4)sc23)c1)c1nccnc1Cl` (single isomer, unassigned) [Example 24, (3-Chloro-pyrazin-2-yl)-[4-fluoro-3-(6-morpholin-4-yl-thieno-[3,2-d}pyrimidin-4-yl)-phenyl]methanol], on Kv11.1 (hERG) (setting [2]), the Ki fell in the range of 15 to 25 µM. For the same compound, the IC50 in data set [1] (setting [3]) is below 0.5 µM; against DNA-PK (enzymatic, 5 μM ATP), below 0.003 µM.
At Kv11.1 (hERG) (setting [2]), `OC(c1cccnn1)c1cc(-c2ncnc3cc(N4CCOCC4)ccc23)c(F)cc1Cl` (single isomer, unassigned) [Example 29, [2-Chloro-4-fluoro-5-(7-morpholin-4-yl-quinazolin-4-yl)phenyl]-pyridazin-3-ylmethanol] displayed a Ki of 15 to 25 µM. The IC50 is 10 to 30 µM in data set [1] (setting [3]) and 0.007 to 0.03 µM at DNA-PK (enzymatic, 5 μM ATP).
Compound `Cn1nc(C(O)c2cc(-c3ncnc4cc(N5CCOCC5)ccc34)c(F)cc2Cl)ccc1=O` (single isomer, unassigned) [Example 44, 6-{[2-Chloro-4-fluoro-5-(7-morpholin-4-yl-quinazolin-4-yl)phenyl]-hydroxymethyl}-2-methyl-2H-pyridazin-3-one] came in with a Ki at Kv11.1 (hERG) (setting [4]) of 15 to 25 µM. The 50% inhibitory concentration (IC50) is 5 to 10 µM in data set [1] (setting [3]) and 0.007 to 0.03 µM on DNA-PK (enzymatic, 5 μM ATP).
As for `Cn1nc(C(O)c2cc(-c3ncnc4cc(N5CCOCC5)ccc34)c(F)cc2Cl)ccc1=O` (single isomer, unassigned) [Example 45, 6-{[2-Chloro-4-fluoro-5-(7-morpholin-4-yl-quinazolin-4-yl)phenyl]-hydroxymethyl}-2-methyl-2H-pyridazin-3-one], at Kv11.1 (hERG) (setting [5]), the Ki was in the range of 15 to 25 µM. In addition, the IC50 in data set [1] (setting [3]) is below 0.5 µM; against DNA-PK (enzymatic, 5 μM ATP), below 0.003 µM.
At Kv11.1 (hERG) (setting [4]), `CC(C#N)Oc1ccc(C(O)c2cc(-c3ncnc4cc(N5CCOCC5)ccc34)c(F)cc2Cl)nn1` (single isomer, unassigned) [Example 102, 2-(6-{[2-Chloro-4-fluoro-5-(7-morpholin-4-yl-quinazolin-4-yl)-phenyl)hydroxy-methyl}pyridazin-3-yloxy)propionitrile] gave a Ki of 15 to 25 µM. The IC50 is below 0.5 µM in data set [1] (setting [3]) and below 0.003 µM on DNA-PK (enzymatic, 5 μM ATP).
On to `CC(C#N)Oc1ccc(C(O)c2cc(-c3ncnc4cc(N5CCOCC5)ccc34)c(F)cc2Cl)nn1` (single isomer, unassigned) [Example 103, 2-(6-{[2-Chloro-4-fluoro-5-(7-morpholin-4-yl-quinazolin-4-yl)-phenyl]hydroxy-methyl}pyridazin-3-yloxy)propionitrile], for which the Ki at Kv11.1 (hERG) (setting [5]) was above 25 µM. The IC50 in data set [1] (setting [3]) was 10 to 30 µM; against DNA-PK (enzymatic, 5 μM ATP), above 0.03 µM.
In the case of `CC(C#N)Oc1ccc(C(O)c2cc(-c3ncnc4cc(N5CCOCC5)ccc34)c(F)cc2Cl)nn1` (single isomer, unassigned) [Example 104, 2-(6-{[2-Chloro-4-fluoro-5-(7-morpholin-4-yl-quinazolin-4-yl)-phenyl]hydroxy-methyl}pyridazin-3-yloxy)propionitrile], the Ki at Kv11.1 (hERG) (setting [5]) lay within 15 to 25 µM. In addition, the half-maximal inhibitory concentration (IC50) lay within 0.5 to 5 µM in data set [1] (setting [3]) and 0.007 to 0.03 µM at DNA-PK (enzymatic, 5 μM ATP).
In the case of `COc1ccc(C(O)c2cc(-c3ncnc4cc(N5CCOCC5)sc34)c(F)cc2Cl)nn1` (single isomer, unassigned) [Example 126, [2-Chloro-4-fluoro-5-(6-morpholin-4-ylthieno[3,2-d}-pyrimidin-4-yl)-phenyl]-(6-methoxy-pyridazin-3-yl)-methanol], on Kv11.1 (hERG) (setting [2]), the Ki was in the range of 10 to 15 µM. The IC50 in data set [1] (setting [3]) is below 0.5 µM; against DNA-PK (enzymatic, 5 μM ATP) it was below 0.003 µM.
Consider `COc1ccc(C(O)c2cc(-c3ncnc4cc(N5CCOCC5)cc(F)c34)c(F)cc2Cl)nn1` (single isomer, unassigned) [Example 271, [2-Chloro-4-fluoro-5-(5-fluoro-7-morpholin-4-yl-quinazolin-4-yl)-phenyl]-(6-methoxy-pyridazin-3-yl)-methanol], for which, at Kv11.1 (hERG) (read-out: Ki [Kv1.11 hERG], hERG patch clamp assay (cells without asterisk)), the Ki was above 25 µM. Also, the IC50 is below 0.5 µM in data set [1] (cellular DNA-PK phosphorylation at serine 2056, HCT116) and below 0.003 µM against DNA-PK (biochemical DNA-PK assay).
